Test results: ChEMBL document CHEMBL1857833, “Screening and optimization of specific chemical series against human African Trypanosomiasis (HAT)”
Values after ≈ are worked out from the molar mass of the structure shown.

Columns and labels:
[1] = DNDI: Cytotoxicity against L929 mouse fibroblasts, CYTO-SP, 24 hour; format: toxicity, cell-based; settings: mouse, L929 mouse fibroblasts
[2] = DNDI: Cytotoxicity against L929 mouse fibroblasts, 72 hour.; format: toxicity, cell-based; settings: mouse, L929 mouse fibroblasts
Trypanosoma brucei [3] = assay: DNDI: Inhibition of Human African Trypanosomiasis, SBRI 427, in vitro; format: functional, organism-based; settings: Trypanosoma brucei, SBRI 427; read-out: IC50
[4] = DNDI: Lipophilicity measured in Chromatographic hydrophobicity index (CHI) assay, pH 7.4; format: physicochemical; settings: buffer
[5] = DNDI: in vitro intrinsic clearance in mouse liver microsomes at a concentration of 10uM; format: ADME, Microsome; settings: read-out: CLint in vitro
[6] = DNDI: half life in mouse liver microsomes at a concentration of 10uM; format: ADME, Microsome
[7] = DNDI: Solubility in phosphate buffered saline at pH7.4 measured by optical density (turbidimetry) at room temperature (OD-RT); format: physicochemical; settings: pH 7.4
Trypanosoma cruzi = assay: DNDI: Inhibition of Chagas Disease parasite Trypanosoma cruzi (Tulahuen LacZ, Clone C4), in vitro.; format: functional, organism-based
[8] = DNDI: Cytotoxicity against L-6 rat myoblasts from skeletal muscle cells; format: toxicity, cell-based, L6; settings: L-6 rat skeletal muscle myoblasts
[9] = tested on: Trypanosoma brucei rhodesiense; assay: DNDI: Inhibition of Human African Trypanosomiasis (HAT), STIB 900, in vitro; format: functional, organism-based
Leishmania donovani = assay: DNDI: Inhibition of formation of Leishmania donovani (strain MHOM/ET/67/L82) axenic amastigotes, in vitro.; format: functional, organism-based
Plasmodium falciparum = assay: DNDI: Inhibition of the malaria parasite Plasmodium falciparum, in vitro; format: functional, organism-based; settings: K1
[10] = DNDI: half life in human liver microsomes at a concentration of 10uM; format: ADME, Microsome
[11] = DNDI: in vitro intrinsic clearance in human liver microsomes at a concentration of 10uM; format: ADME, Microsome
[12] = mouse, microsomes, 1 µM
Description: DNDI: in vitro intrinsic clearance in mouse liver microsomes at a concentration of 1uM

in vitro = settings: mouse, t (1 / 2)
Description: DNDI: half life in mouse liver microsomes at a concentration of 1uM

Trypanosoma brucei [13] = assay: DNDI: Mean survival time in days (MSD) of mice after intraperitoneal injection of Human African Trypanosomiasis (HAT), EATRO 110, in vivo at 20 mg/kg/day for 4 days.; format: functional, Mus musculus
[14] = DNDI: Solubility in phosphate buffered saline at pH7.4 measured by nephelometry at room temperature (NEPH-RT); format: physicochemical; settings: pH 7.4

SMILES | IC50 at 24 h [1] | IC50 at 72 h [2] | IC50 (Trypanosoma brucei [3]) | chromatographic logD [4] | microsomal CLint at 10 µM [5] | half-life at 10 µM [6] | solubility kinetic [7] | IC50 (Trypanosoma cruzi) | IC50 [8] | IC50 [9] | IC50 (Leishmania donovani) | IC50 (Plasmodium falciparum) | half-life at 10 µM [10] | CLint in vitro [11] | CLint in vitro [12] | half-life at 1 µM (in vitro; microsomes) | MSD (Trypanosoma brucei [13]) | solubility kinetic [14] | half-life at 1 µM (in vitro; liver microsomes)
CCCCCC(C)NCc1coc(-c2cccc(OCC)c2)n1 (centres undefined) | 17 µg/mL (≈ 53.7 µM) | 6.82 µg/mL (≈ 21.6 µM) | 2.13 µg/mL (≈ 6.73 µM) | 4.83 | 97 µL/min/mg | 30 min | 6.3 µM (≈ 1.99 µg/mL) |  |  |  |  |  |  |  |  |  |  |  | 
O/N=C(\NC1CCCCC1)c1ccccc1 | 50 µg/mL (≈ 229 µM) | > 10 µg/mL | 0.92 µg/mL (≈ 4.21 µM) | 3.9 | 82 µL/min/mg | 35 min | > 200 µM | > 30 µg/mL | 49.7 µg/mL (≈ 227 µM) | 13.6 µg/mL (≈ 62.3 µM) | 40.9 µg/mL (≈ 187 µM) | > 5 µg/mL | 289 min | 10 µL/min/mg | 111 µL/min/mg | 8 min |  |  | 
COc1cccc(/C(=N/O)NC2CCCCC2)c1 | > 50 µg/mL | > 10 µg/mL | 0.57 µg/mL (≈ 2.3 µM) | 3.84 | 421 µL/min/mg | 7 min | 100 µM (≈ 24.8 µg/mL) | > 30 µg/mL | 63.3 µg/mL (≈ 255 µM) | 14.4 µg/mL (≈ 58 µM) | 34 µg/mL (≈ 137 µM) | 4.4 µg/mL (≈ 17.7 µM) | 219 min | 13 µL/min/mg |  |  | 4 days |  | 
O/N=C(\NC1CCCCC1)c1ccccc1Oc1ccccc1 | > 50 µg/mL | > 10 µg/mL | 0.62 µg/mL (≈ 2 µM) | 4.43 | 767 µL/min/mg | 4 min | 100 µM (≈ 31 µg/mL) | > 30 µg/mL | > 90 µg/mL | 62.6 µg/mL (≈ 202 µM) | 73.4 µg/mL (≈ 236 µM) | 4.41 µg/mL (≈ 14.2 µM) | 64 min | 45 µL/min/mg |  |  |  |  | 
CCCCCC(C)NCc1ccc(-c2ccccc2)cc1 (centres undefined) | > 50 µg/mL | < 3.13 µg/mL | 0.66 µg/mL (≈ 2.35 µM) | 4.2 | 126 µL/min/mg | 23 min | 12.5 µM (≈ 3.52 µg/mL) |  |  |  |  |  | 114 min | 25 µL/min/mg |  |  |  |  | 
CCc1cccc(N/C(=N/O)c2ccc(OC)cc2)c1 | > 50 µg/mL | > 10 µg/mL | 0.76 µg/mL (≈ 2.81 µM) | 3.76 |  |  |  | 17 µg/mL (≈ 62.9 µM) | 44.7 µg/mL (≈ 165 µM) | 34.3 µg/mL (≈ 127 µM) | 26.6 µg/mL (≈ 98.3 µM) | 3.87 µg/mL (≈ 14.3 µM) |  |  | 470 µL/min/mg |  | 4 days | > 200 µM | 2 min
